Test results taken from US9198433B2, “Substituted benzene fungicides” (E I DU PONT DE NEMOURS AND COMPANY, priority 2007, dated 2015).
Marks after values point to notes of the source that are not given here.

Key:
Type in all cases: in vivo
[1] = system: Erysiphe graminis f. sp. tritici; test: Test A: wheat powdery mildew, preventive spray on wheat seedlings, disease rating
Description: (§1) The test compounds were first dissolved in acetone in an amount equal to 3% of the final volume and then suspended at the desired concentration (in ppm) in acetone and purified water (50/50 mix) containing 250 ppm of the surfactant Trem® 014 (polyhydric alcohol esters). The resulting test suspensions were then used in Tests A-L. Spraying a 200 ppm test suspension to the point of run-off on the test plants was the equivalent of an application rate of 500 g/ha. The test suspension was sprayed to the point of run-off on wheat seedlings. […] A dash (-) indicates no test results. All results are for 200 ppm except where followed by an “*”, which indicates 40 ppm or “**”, which indicates 50 ppm.

[2] = system: Puccinia recondita f. sp. tritici; test: Test B: wheat leaf rust, preventive spray on wheat seedlings, disease rating
Description: as §1

[3] = system: Septoria nodorum; test: Test C: wheat glume blotch, preventive spray on wheat seedlings, disease rating
Description: as §1

[4] = system: Septoria tritici; test: Test D: wheat leaf blotch, preventive spray on wheat seedlings, disease rating
Description: The test compounds were first dissolved in acetone in an amount equal to 3% of the final volume and then suspended at the desired concentration (in ppm) in acetone and purified water (50/50 mix) containing 250 ppm of the surfactant Trem® 014 (polyhydric alcohol esters). The resulting test suspensions were then used in Tests A-L. Spraying a 200 ppm test suspension to the point of run-off on the test plants was the equivalent of an application rate of 500 g/ha. The test suspension was sprayed to the point of run-off on wheat seedlings. The following day the seedlings were inoculated with a spore suspension of Septoria tritici (the causal agent of wheat leaf blotch) and incubated in a saturated atmosphere at 24° C. for 48 h, and then moved to a growth chamber at 20° C. for 19 days, after which time disease ratings were made. […] A dash (-) indicates no test results. All results are for 200 ppm except where followed by an “*”, which indicates 40 ppm or “**”, which indicates 50 ppm.

[5] = system: Botrytis cinerea; test: Test F: tomato Botrytis, preventive spray on tomato seedlings, disease rating
Description: (§2) The test compounds were first dissolved in acetone in an amount equal to 3% of the final volume and then suspended at the desired concentration (in ppm) in acetone and purified water (50/50 mix) containing 250 ppm of the surfactant Trem® 014 (polyhydric alcohol esters). The resulting test suspensions were then used in Tests A-L. Spraying a 200 ppm test suspension to the point of run-off on the test plants was the equivalent of an application rate of 500 g/ha. The test suspension was sprayed to the point of run-off on tomato seedlings. […] A dash (-) indicates no test results. All results are for 200 ppm except where followed by an “*”, which indicates 40 ppm or “**”, which indicates 50 ppm.

[6] = system: Alternaria solani; test: Test H: tomato early blight, preventive spray on tomato seedlings, disease rating
Description: as §2

[7] = 200 ppm, 100 = 100% disease control, 0 = no control relative to controls
[8] = 40 ppm (*), 100 = 100% disease control, 0 = no control relative to controls

SMILES	Percentage Disease Control, Test A ([1]; 40 ppm (*))	Percentage Disease Control, Test B ([2]; 40 ppm (*))	Percentage Disease Control, Test C ([3]; 40 ppm (*))	Percentage Disease Control, Test D ([4]; 40 ppm (*))	Percentage Disease Control, Test H ([6]; 40 ppm (*))	Percentage Disease Control, Test F ([5]; 200 ppm) [%]	Percentage Disease Control, Test H ([6]; 200 ppm) [%]	further results
COC(=O)NCc1cc(-c2ccn(Cc3cccc(C#N)c3)n2)ccc1Cl [Cmpd 75]	72* %	93* %	40* %	91* %	61* %	–	–	Percentage Disease Control, Test F ([5]; 40 ppm (*)): 20* %
COC(=O)NCc1cc(-c2cc(C(F)(F)F)nn2C)ccc1Cl [Cmpd 141]	–	–	–	–	–	–	–	Percentage Disease Control, Test A [1, 7]: 96%; Percentage Disease Control, Test B [2, 7]: 89%; Percentage Disease Control, Test C [3, 7]: 82%; Percentage Disease Control, Test D [4, 7]: 98%; Percentage Disease Control, Test F [5, 7]: 0%; Percentage Disease Control, Test H [6, 7]: 0%
COC(=O)NCc1cc(-c2ccn(-c3ccc(C)cc3)n2)ccc1Cl [Cmpd 109]	98* %	100* %	100* %	99* %	100* %	–	–	Percentage Disease Control, Test F ([5]; 40 ppm (*)): 92* %
COC(=O)NCc1cc(-c2ccn(-c3ccc(C#N)cc3)n2)ccc1Cl [Cmpd 114]	–	–	–	–	–	0	0	Percentage Disease Control, Test A ([1]; 200 ppm): 93%; Percentage Disease Control, Test B ([2]; 200 ppm): 99%; Percentage Disease Control, Test C ([3]; 200 ppm): 100%; Percentage Disease Control, Test D ([4]; 200 ppm): 100%
COC(=O)NCc1cc(-c2ccn(-c3ccc(Br)cc3)n2)ccc1Cl [Cmpd 111]	99* %	100* %	100* %	100* %	90* %	95	–	–
COC(=O)NCc1cc(-c2ccn(Cc3ccccc3C(F)(F)F)n2)ccc1Cl [Cmpd 62]	99* %	99* %	100* %	100* %	0* %	–	–	Percentage Disease Control, Test F ([5]; 40 ppm (*)): 0* %
COC(=O)NCc1cc(-c2ccnc(-c3cccc(C)c3)n2)ccc1Cl [Cmpd 133]	–	–	–	–	–	–	–	Percentage Disease Control, Test A [1, 7]: 94%; Percentage Disease Control, Test B [2, 7]: 93%; Percentage Disease Control, Test C [3, 7]: 93%; Percentage Disease Control, Test D [4, 8]: 92* %; Percentage Disease Control, Test F [5, 7]: 0%; Percentage Disease Control, Test H [6, 7]: 0%
COC(=O)NCc1cc(-c2ccnc(OCc3ccccc3)n2)ccc1Cl [Cmpd 139]	–	–	–	–	–	–	–	Percentage Disease Control, Test A [1, 7]: 87%; Percentage Disease Control, Test B [2, 8]: 100* %; Percentage Disease Control, Test C [3, 8]: 99* %; Percentage Disease Control, Test D [4, 8]: 92* %; Percentage Disease Control, Test F [5, 7]: 0%; Percentage Disease Control, Test H [6, 7]: 26%
COC(=O)NCc1cc(-c2ccn(-c3cccc(C#N)c3)n2)ccc1Cl [Cmpd 113]	–	–	–	–	–	24	0	Percentage Disease Control, Test A ([1]; 200 ppm): 92%; Percentage Disease Control, Test B ([2]; 200 ppm): 99%; Percentage Disease Control, Test C ([3]; 200 ppm): 100%; Percentage Disease Control, Test D ([4]; 200 ppm): 100%
COC(=O)NCc1cc(-c2ccn(-c3nc(C(C)C)ns3)n2)ccc1Cl [Cmpd 104]	100* %	100* %	100* %	100* %	–	0	40	–
COC(=O)NCc1cc(-n2ccc(-c3cccc(C(F)(F)F)c3)n2)ccc1Cl [Cmpd 119]	100* %	100* %	100* %	100* %	–	51	57	–
